Target: Human eIF4E (Homo sapiens (Human), UniProt P06730)
Assay: Human eIF4E/4G binding assay (time-resolved fluorescence, HH-eIF4E and biotin-labeled 4G2 peptide)
Details: inhibition of binding of His-tagged human eIF4E (aa 28-217) to biotin-labeled 4G2 peptide

Sequence of Human eIF4E (P06730 28-217): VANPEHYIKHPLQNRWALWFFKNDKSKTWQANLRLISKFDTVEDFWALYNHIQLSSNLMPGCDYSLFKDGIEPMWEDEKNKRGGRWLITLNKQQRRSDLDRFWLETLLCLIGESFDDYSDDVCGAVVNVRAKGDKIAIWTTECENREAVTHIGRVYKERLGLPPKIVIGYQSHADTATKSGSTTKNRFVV

Compound | IC50 [nM]
N#Cc1ccc(-c2ccc(-c3nc(-c4ccc(Cl)c(Cl)c4)cs3)cc2C(=O)O)cc1Cl [Example 114, 3′-Chloro-4′-cyano-4-[4-(3,4-dichloro-phenyl)-thiazol-2-yl]-biphenyl-2-carboxylic acid] | 1700
N#Cc1cc(-c2ccc(-c3nc(-c4ccc(Cl)c(Cl)c4)cs3)cc2C(=O)O)ccc1Cl [Example 115, 4′-Chloro-3′-cyano-4-[4-(3,4-dichloro-phenyl)-thiazol-2-yl]-biphenyl-2-carboxylic acid] | 1900
CC(=O)c1cccc(-c2ccc(-c3nc(-c4ccc(Cl)c(Cl)c4)cs3)cc2C(=O)O)c1 [Example 116, 3′-Acetyl-4-[4-(3,4-dichloro-phenyl)-thiazol-2-yl]-biphenyl-2-carboxylic acid] | 7700
CC(=O)c1ccccc1-c1ccc(-c2nc(-c3ccc(Cl)c(Cl)c3)cs2)cc1C(=O)O [Example 117, 2′-Acetyl-4-[4-(3,4-dichloro-phenyl)-thiazol-2-yl]-biphenyl-2-carboxylic acid] | 7700
CC(=O)c1ccc(Cl)c(-c2ccc(-c3nc(-c4ccc(Cl)c(Cl)c4)cs3)cc2C(=O)O)c1 [Example 118, 5′-Acetyl-2′-chloro-4-[4-(3,4-dichloro-phenyl)-thiazol-2-yl]-biphenyl-2-carboxylic acid] | 1500
CC(=O)c1sccc1-c1ccc(-c2nc(-c3ccc(Cl)c(Cl)c3)cs2)cc1C(=O)O [Example 119, 2-(2-Acetyl-thiophen-3-yl)-5-[4-(3,4-dichloro-phenyl)-thiazol-2-yl]-benzoic acid] | 9600
CC(=O)c1ccc(-c2ccc(-c3nc(-c4ccc(Cl)c(Cl)c4)cs3)cc2C(=O)O)cc1 [Example 120, 4′-Acetyl-4-[4-(3,4-dichloro-phenyl)-thiazol-2-yl]-biphenyl-2-carboxylic acid] | 3800
Cc1ccc(C=O)c(-c2ccc(-c3nc(-c4ccc(Cl)c(Cl)c4)cs3)cc2C(=O)O)c1 [Example 122, 4-[4-(3,4-Dichloro-phenyl)-thiazol-2-yl]-2′-formyl-5′-methyl-biphenyl-2-carboxylic acid] | 5100
O=Cc1ccccc1-c1ccc(-c2nc(-c3ccc(Cl)c(Cl)c3)cs2)cc1C(=O)O [Example 123, 4-[4-(3,4-Dichloro-phenyl)-thiazol-2-yl]-2′-formyl-biphenyl-2-carboxylic acid] | 5500
O=C(O)c1cc(-c2nc(-c3ccc(Cl)c(Cl)c3)cs2)ccc1-c1ccc(C(F)(F)F)cc1C(F)(F)F [Example 125, 4-[4-(3,4-Dichloro-phenyl)-thiazol-2-yl]-2′,4′-bis-trifluoromethyl-biphenyl-2-carboxylic acid] | 3000
O=C(O)c1cc(-c2nc(-c3ccc(Cl)c(Cl)c3)cs2)ccc1-c1cccc(C(F)(F)F)c1Cl [Example 126, 2′-Chloro-4-[4-(3,4-dichloro-phenyl)-thiazol-2-yl]-3′-trifluoromethyl-biphenyl-2-carboxylic acid] | 2800
O=C(O)c1cc(-c2nc(-c3ccc(Cl)c(Cl)c3)cs2)ccc1-c1ccc(F)cc1 [Example 129, 4-[4-(3,4-Dichloro-phenyl)-thiazol-2-yl]-4′-fluoro-biphenyl-2-carboxylic acid] | 2600
Cc1ccccc1-c1ccc(-c2nc(-c3ccc(Cl)c(Cl)c3)cs2)cc1C(=O)O [Example 141, 4-[4-(3,4-Dichloro-phenyl)-thiazol-2-yl]-2′-methyl-biphenyl-2-carboxylic acid] | 5900
O=C(O)c1cc(-c2nc(-c3ccc(Cl)c(Cl)c3)cs2)ccc1-c1sccc1Cl [Example 146, 2-(3-Chloro-thiophen-2-yl)-5-[4-(3,4-dichloro-phenyl)-thiazol-2-yl]-benzoic acid] | 1700
O=C(O)c1cc(-c2nc(-c3ccc(Cl)c(Cl)c3)cs2)ccc1-c1ccc(Cl)cc1 [Example 147, 4′-Chloro-4-[4-(3,4-dichloro-phenyl)-thiazol-2-yl]-biphenyl-2-carboxylic acid] | 1700
O=C(O)c1cc(-c2nc(-c3ccc(Cl)c(Cl)c3)cs2)ccc1-c1ccccc1 [Example 151, 4-[4-(3,4-Dichloro-phenyl)-thiazol-2-yl]-biphenyl-2-carboxylic acid] | 5900
O=C(O)c1cc(-c2nc(-c3ccc(Cl)c(Cl)c3)cs2)ccc1-c1cccc(Cl)c1Cl [Example 152, 2′,3′-Dichloro-4-[4-(3,4-dichloro-phenyl)-thiazol-2-yl]-biphenyl-2-carboxylic acid] | 2100
O=C(O)c1cc(-c2nc(-c3ccc(Cl)c(Cl)c3)cs2)ccc1-c1ccccc1Cl [Example 153, 2′-Chloro-4-[4-(3,4-dichloro-phenyl)-thiazol-2-yl]-biphenyl-2-carboxylic acid] | 2200

Next, values leading:

IC50 [nM] | Compound
6100 | O=C(O)c1ccc(-c2ccc(-c3nc(-c4ccc(Cl)c(Cl)c4)cs3)cc2C(=O)O)c(F)c1 [Example 121, 4-[4-(3,4-Dichloro-phenyl)-thiazol-2-yl]-2′-fluoro-biphenyl-2,4′-dicarboxylic acid]
1600 | O=C(O)c1cc(-c2nc(-c3ccc(Cl)c(Cl)c3)cs2)ccc1-c1ccc(C(F)(F)F)cc1Cl [Example 127, 2′-Chloro-4-[4-(3,4-dichloro-phenyl)-thiazol-2-yl]-4′-trifluoromethyl-biphenyl-2-carboxylic acid]
1100 | O=C(O)c1cc(-c2nc(-c3ccc(Cl)c(Cl)c3)cs2)ccc1-c1cc(C(F)(F)F)ccc1Cl [Example 128, 2′-Chloro-4-[4-(3,4-dichloro-phenyl)-thiazol-2-yl]-5′-trifluoromethyl-biphenyl-2-carboxylic acid]
1800 | O=C(O)c1cc(-c2nc(-c3ccc(Cl)c(Cl)c3)cs2)ccc1-c1cc(F)ccc1F [Example 131, 4-[4-(3,4-Dichloro-phenyl)-thiazol-2-yl]-2′,5′-difluoro-biphenyl-2-carboxylic acid]
5600 | O=C(O)c1cc(-c2nc(-c3ccc(Cl)c(Cl)c3)cs2)ccc1-c1ccc(F)cc1F [Example 132, 4-[4-(3,4-Dichloro-phenyl)-thiazol-2-yl]-2′,4′-difluoro-biphenyl-2-carboxylic acid]
1600 | O=C(O)c1cc(-c2nc(-c3ccc(Cl)c(Cl)c3)cs2)ccc1-c1cc(F)cc(F)c1F [Example 133, 4-[4-(3,4-Dichloro-phenyl)-thiazol-2-yl]-2′,3′,5′-trifluoro-biphenyl-2-carboxylic acid]
1400 | O=C(O)c1cc(-c2nc(-c3ccc(Cl)c(Cl)c3)cs2)ccc1-c1ccc(F)cc1Cl [Example 134, 2′-Chloro-4-[4-(3,4-dichloro-phenyl)-thiazol-2-yl]-4′-fluoro-biphenyl-2-carboxylic acid]
3600 | O=C(O)c1cc(-c2nc(-c3ccc(Cl)c(Cl)c3)cs2)ccc1-c1ccccc1F [Example 137, 4-[4-(3,4-Dichloro-phenyl)-thiazol-2-yl]-2′-fluoro-biphenyl-2-carboxylic acid]
1900 | O=C(O)c1cc(-c2nc(-c3ccc(Cl)c(Cl)c3)cs2)ccc1-c1cccc(F)c1F [Example 138, 4-[4-(3,4-Dichloro-phenyl)-thiazol-2-yl]-2′,3′-difluoro-biphenyl-2-carboxylic acid]
1600 | Cc1ccc(F)c(-c2ccc(-c3nc(-c4ccc(Cl)c(Cl)c4)cs3)cc2C(=O)O)c1Cl [Example 139, 2′-Chloro-4-[4-(3,4-dichloro-phenyl)-thiazol-2-yl]-6′-fluoro-3′-methyl-biphenyl-2-carboxylic acid]
4200 | Cc1cscc1-c1ccc(-c2nc(-c3ccc(Cl)c(Cl)c3)cs2)cc1C(=O)O [Example 142, 5-[4-(3,4-Dichloro-phenyl)-thiazol-2-yl]-2-(4-methyl-thiophen-3-yl)-benzoic acid]
1100 | Cc1ccc(Cl)c(-c2ccc(-c3nc(-c4ccc(Cl)c(Cl)c4)cs3)cc2C(=O)O)c1 [Example 144, 2′-Chloro-4-[4-(3,4-dichloro-phenyl)-thiazol-2-yl]-5′-methyl-biphenyl-2-carboxylic acid]
2200 | O=C(O)c1cc(-c2nc(-c3ccc(Cl)c(Cl)c3)cs2)ccc1-c1ccsc1Cl [Example 145, 2-(2-Chloro-thiophen-3-yl)-5-[4-(3,4-dichloro-phenyl)-thiazol-2-yl]-benzoic acid]
1700 | O=C(O)c1cc(-c2nc(-c3ccc(Cl)c(Cl)c3)cs2)ccc1-c1cc(Cl)ccc1Cl [Example 148, 2′,5′-Dichloro-4-[4-(3,4-dichloro-phenyl)-thiazol-2-yl]-biphenyl-2-carboxylic acid]
> 80000 | O=C(O)c1cc(-c2nc(-c3ccc(Cl)c(Cl)c3)cs2)ccc1-c1cc(Cl)cc(Cl)c1Cl [Example 149, 2′,3′,5′-Trichloro-4-[4-(3,4-dichloro-phenyl)-thiazol-2-yl]-biphenyl-2-carboxylic acid]
1400 | O=C(O)c1cc(-c2nc(-c3ccc(Cl)c(Cl)c3)cs2)ccc1-c1ccc(Cl)cc1Cl [Example 150, 2′,4′-Dichloro-4-[4-(3,4-dichloro-phenyl)-thiazol-2-yl]-biphenyl-2-carboxylic acid]

— patent US9073881B2, “Benzoic acid derivatives” (HOFFMANN-LA ROCHE INC., priority 2011, dated 2015)
